The values that follow come from PubChem BioAssay (NCI).

Test systems include 786-0 renal; A498 renal; LOX IMVI melanoma; MALME-3M melanoma; MDA-N; NCI-H522 lung; OVCAR-4 ovarian; SK-MEL-5 melanoma; SNB-19 CNS; SR leukemia; T-47D breast.
Holding throughout (test): growth of human tumour cells (NCI), 48 h

The structures appear in SMILES notation.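 These data come from cells grown in 96-well plates and exposed to compound for 48 hours at five concentrations. Definition used: TGI = concentration required for complete inhibition of growth.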 Where only a bound is given, the exact number is not on record here.

On to `CC(C)=CCNc1nc(Cl)nc2nc[nH]c12`, for which the TGI in the experiment on 786-0 renal, in the experiment with A498 renal, in the experiment with LOX IMVI melanoma, in the experiment with MALME-3M melanoma, in the experiment with MDA-N and in the experiment on NCI-H522 lung was above 100 µM in each case. The TGI with OVCAR-4 ovarian, with SK-MEL-5 melanoma, with SNB-19 CNS, with SR leukemia and in the experiment on T-47D breast was above 100 µM each time.
Turning to `CC(C)/C(Cl)=N\OC(NC(=O)P(=O)(c1ccccc1)c1ccccc1)(C(F)(F)F)C(F)(F)F`, the TGI with 786-0 renal was found to be 22.8 µM; in the experiment on A498 renal it was 28.6 µM; with LOX IMVI melanoma it was 29.6 µM; with MALME-3M melanoma it was 20.9 µM; with MDA-N, 63.8 µM; with OVCAR-4 ovarian it was 25.1 µM. The TGI with SK-MEL-5 melanoma is 26.7 µM; with SNB-19 CNS it was 35.3 µM; with SR leukemia, 59 µM; in the experiment on T-47D breast, above 100 µM.
In the case of `CC(=O)NC1C(OCc2ccccc2)OC(CO)C(O)C1OC(C)C(=O)NC(C(=O)NC(CCC(=O)NCCCCNc1c2ccccc2nc2cccc([N+](=O)[O-])c12)C(N)=O)C(C)C` (configuration not stated), the TGI with 786-0 renal worked out at 5.45 µM; in the experiment on A498 renal it was 4.74 µM; in the experiment with LOX IMVI melanoma, 4.68 µM; in the experiment with MALME-3M melanoma, 4.08 µM; with MDA-N, 3.67 µM; in the experiment with NCI-H522 lung it was 0.511 µM. The TGI in the experiment on OVCAR-4 ovarian was 3.97 µM; with SK-MEL-5 melanoma, 7.39 µM; in the experiment on SNB-19 CNS, 34.5 µM; with SR leukemia it was 2.61 µM; in the experiment with T-47D breast, above 38.2 µM.
Regarding `O=C1c2c(O)cccc2-c2nn(CCNCCO)c3ccc(NCCNCCO)c1c23`, the TGI with 786-0 renal came to 0.895 µM; in the experiment on A498 renal, 0.578 µM; in the experiment with LOX IMVI melanoma, 1.68 µM; in the experiment on MALME-3M melanoma it was 1.12 µM; in the experiment with MDA-N, 1.94 µM; with NCI-H522 lung, 0.164 µM. The TGI came to 2.97 µM in the experiment with OVCAR-4 ovarian; 1.13 µM in the experiment on SK-MEL-5 melanoma; 0.405 µM with SNB-19 CNS; 3 µM with SR leukemia; 4.61 µM in the experiment on T-47D breast.
For the compound `Cc1nc(N)c(N2CCN(CN)CC2)c(=O)[nH]1`, the TGI in the experiment with 786-0 renal, with A498 renal, in the experiment on LOX IMVI melanoma, in the experiment on MALME-3M melanoma, in the experiment on MDA-N and in the experiment on NCI-H522 lung was above 100 µM throughout. Also, the TGI with OVCAR-4 ovarian, with SNB-19 CNS, with SR leukemia and with T-47D breast was above 100 µM each time.
For `CN(C)CCCNc1ccc2nnn3c4ccc(O)cc4c(=O)c1c23`, the TGI in the experiment with 786-0 renal amounted to 16.9 µM; in the experiment on A498 renal it was 20.1 µM; in the experiment with LOX IMVI melanoma it was 4.12 µM; with MALME-3M melanoma, 23.1 µM; in the experiment on MDA-N, 19.9 µM; with NCI-H522 lung, 19.8 µM. Also, the TGI turned out to be 18.5 µM in the experiment with OVCAR-4 ovarian; 19.7 µM in the experiment on SK-MEL-5 melanoma; 23.7 µM in the experiment with SNB-19 CNS; 3.61 µM in the experiment on SR leukemia; 40.9 µM in the experiment with T-47D breast.
Take `CN(Cc1cnc2nc(N)nc(N)c2n1)c1ccc(C(=O)NC(CO)CCCO)cc1` (configuration not stated): the TGI with 786-0 renal, in the experiment on A498 renal, in the experiment with LOX IMVI melanoma, with MALME-3M melanoma, with MDA-N and in the experiment with SK-MEL-5 melanoma was above 100 µM in each case. The TGI in the experiment with SNB-19 CNS, in the experiment on SR leukemia and in the experiment on T-47D breast was above 100 µM each time.
With `O=C(O)COc1cc(-c2ccccc2)nc2cc(F)ccc12`, the TGI with 786-0 renal, in the experiment with A498 renal, in the experiment with LOX IMVI melanoma, in the experiment on MALME-3M melanoma, in the experiment on MDA-N and in the experiment on NCI-H522 lung was above 100 µM each time. The TGI in the experiment on OVCAR-4 ovarian, in the experiment with SK-MEL-5 melanoma, in the experiment on SNB-19 CNS, in the experiment on SR leukemia and with T-47D breast was above 100 µM throughout.
In the case of `O=C(Cc1ccc(Cl)c(Cl)c1)NCC1(N2CCCCC2)CCCCC1`, the TGI in the experiment on 786-0 renal is above 100 µM; with A498 renal, above 100 µM; in the experiment on LOX IMVI melanoma it was above 100 µM; in the experiment with MALME-3M melanoma, 47.2 µM; with MDA-N, above 100 µM; with NCI-H522 lung, above 100 µM. The TGI was above 100 µM with OVCAR-4 ovarian, above 100 µM in the experiment on SNB-19 CNS, above 100 µM in the experiment on SR leukemia and 89.7 µM in the experiment with T-47D breast.
Take `N#Cc1cc2c(n(C3OC(CO)C(O)C(O)C3O)c1=S)CCCCCC2` (configuration not stated): the TGI in the experiment with 786-0 renal, with A498 renal, with LOX IMVI melanoma, in the experiment on MALME-3M melanoma, in the experiment with MDA-N and with NCI-H522 lung was above 100 µM throughout. Moreover, the TGI in the experiment with OVCAR-4 ovarian, in the experiment with SK-MEL-5 melanoma, with SNB-19 CNS, in the experiment on SR leukemia and in the experiment on T-47D breast was above 100 µM throughout.
As to `CC(C)C(C/C=C1\CC(CO)(COC(=O)C2CCCCC2)OC1=O)C(C)C` (configuration not stated), the TGI was 28.9 µM in the experiment on 786-0 renal; above 100 µM with A498 renal; 32.3 µM with LOX IMVI melanoma; 35.5 µM in the experiment on MALME-3M melanoma; 59.3 µM with MDA-N; 31.8 µM in the experiment on NCI-H522 lung. The TGI is 36 µM in the experiment with OVCAR-4 ovarian; above 100 µM with SK-MEL-5 melanoma; 31.4 µM with SNB-19 CNS; above 100 µM with SR leukemia; 48 µM with T-47D breast.
For `Cc1ccc(S(=O)(=O)Nc2nnc(S(N)(=O)=O)s2)cc1`, the TGI with 786-0 renal, in the experiment with A498 renal, in the experiment on LOX IMVI melanoma, in the experiment with MALME-3M melanoma, in the experiment on MDA-N and in the experiment with NCI-H522 lung was above 100 µM each time. Also, the TGI with OVCAR-4 ovarian, in the experiment with SK-MEL-5 melanoma, in the experiment with SNB-19 CNS, in the experiment on SR leukemia and in the experiment on T-47D breast was above 100 µM in each case.
